Reference: PubChem BioAssay (NCI)
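96-well plates; 48 h exposure; 5 concentrations. Endpoints by linear interpolation between flanking doses. Not reached: highest tested concentration assigned. TGI marks complete inhibition of growth.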

Experiments:
Experiment in all cases: NCI-60 cell line screen, 48 h
HOP-18 NSCLC = test system: HOP-18 NSCLC
HOP-62 NSCLC = test system: HOP-62 NSCLC
M19-MEL melanoma = test system: M19-MEL melanoma
MALME-3M melanoma = test system: MALME-3M melanoma
SK-MEL-28 melanoma = test system: SK-MEL-28 melanoma
SN12C renal = test system: SN12C renal
SW-620 colon = test system: SW-620 colon
TK-10 renal = test system: TK-10 renal
UO-31 renal = test system: UO-31 renal
RPMI-8226 leukemia = test system: RPMI-8226 leukemia

| Structure (SMILES) | TGI (HOP-18 NSCLC) [µM] | TGI (HOP-62 NSCLC) [µM] | TGI (M19-MEL melanoma) [µM] | TGI (MALME-3M melanoma) [µM] | TGI (SK-MEL-28 melanoma) [µM] | TGI (SN12C renal) [µM] | TGI (SW-620 colon) [µM] | TGI (TK-10 renal) [µM] | TGI (UO-31 renal) [µM] | TGI (RPMI-8226 leukemia) [µM] |
| --- | --- | --- | --- | --- | --- | --- | --- | --- | --- | --- |
| Cc1ccc(C)c(N2C(=O)C(=O)C(c3nc4ccccc4o3)C(=O)C2=O)c1 | > 100 | > 100 | > 100 | > 100 | > 100 | > 100 | > 100 | > 100 | > 100 | – |
| C1CN(c2nnc(N3CCC3)nn2)C1 | > 100 | > 100 | 29.4 | > 79.3 | > 68.3 | 65.8 | 59 | > 100 | > 100 | > 100 |
| COc1ccc2nc(C(=O)c3ccccc3)c(C)cc2c1 | > 52 | 37.1 | > 37.7 | > 39.1 | > 62.2 | > 65.8 | > 37.4 | 76.1 | > 57.7 | > 100 |
| O=C(C(=O)n1ncc(Cl)c(Cl)c1=O)n1ncc(Cl)c(Cl)c1=O | 67 | > 100 | 48.7 | 48.1 | 59.3 | > 65.8 | 42.7 | 70.1 | > 100 | 26.8 |
| Cc1c(C(=O)O)n(C)c(=O)n(C)c1=O | > 100 | > 100 | > 100 | > 100 | > 100 | > 100 | > 100 | > 100 | > 100 | – |
| Cc1cccc(C(=O)O)c1C(=O)c1cccc2ccccc12 | > 100 | > 100 | > 100 | > 100 | > 100 | > 100 | > 100 | > 100 | > 100 | – |
| CCOC(=O)c1cc(-c2ccc(-c3cc(C(=O)OCC)c(C#N)c(N)c3C#N)cc2)c(C#N)c(N)c1C#N | > 100 | > 100 | > 100 | > 100 | > 100 | > 100 | > 100 | > 100 | > 100 | > 100 |
| N#CC(C(=O)CCCC(=O)Nc1ccc(Cl)cc1Cl)c1ccccc1 (centres undefined) | > 100 | > 100 | > 100 | > 100 | > 100 | > 100 | > 100 | > 100 | > 100 | – |
| CC(C)c1cc(C(C)C)c(S(=O)(=O)N=[N+]=[N-])c(C(C)C)c1 | – | > 100 | > 100 | > 100 | > 100 | > 100 | > 100 | > 100 | > 100 | 97.6 |
| CCCCCC(=O)Nc1nc2nc[nH]c2c(=O)[nH]1 | > 100 | > 100 | > 100 | > 100 | – | > 100 | > 100 | > 100 | > 100 | > 100 |
| COCCOc1cc(C)cc(/C=C(C)/C=C/C2=C(C)CCCC2(C)C)n1 | > 100 | > 100 | > 100 | > 100 | > 100 | > 100 | > 100 | > 100 | > 100 | 52.3 |
